# Data published in patent publication US20240415756A1, “PEPTIDES AND COMPOSITIONS FOR USE IN COSMETICS” (LIPOTRUE, S.L., priority 2022, published 2024).
# Marks after values point to notes of the source that are not given here. Ends that are not written are not given here.
# Legend:
# [1] = tested on: voltage-gated sodium channels; test: QPatch48 HT electrophysiology of sodium channels in SHSY-5Y cells; assay type: cell-based, human
# Procedure: Using SHSY-5Y cells, electrophysiology was performed to measure ion channel activity using the QPatch48 HT (Sophion, Denmark). The samples tested were: • Negative control: 0.05% (v/v) Bovine Serum Albumin • Positive control: Tetradotoxin (TTX) at a concentration of 3 nM, 10 nM and 30 nM. • SEQ ID NO: 2—NH2 at a concentration of 0.005 mg/mL, 0.01 mg/ml and 0.05 mg/mL. • SEQ ID NO: 3—NH2 at a concentration of 0.005 mg/mL, 0.01 mg/ml and 0.05 mg/mL. • SEQ ID NO: 4—NH2 at a concentration of 0.005 mg/mL, 0.01 mg/ml and 0.05 mg/mL. • SEQ ID NO: 5—NH2 at a concentration of 0.005 mg/ml, 0.01 mg/mL and 0.05 mg/mL. • SEQ ID NO: 6—NH2 at a concentration of 0.005 mg/mL, 0.01 mg/ml and 0.05 mg/mL.
# The percentage inhibition for each test dose application period was calculated as a reduction in mean cursor value (peak current) relative to the cursor value measured at the end of the vehicle control (pre-drug) and normalized to the maximum inhibition recorded with the supramaximal addition of TTX.
# [2] = tested on: ECM-related genes; test: RT-qPCR expression of ECM-related genes in HDFa cells; assay type: cell-based, human
# Procedure: A stock solution of the peptide was prepared in milli-Q water at 25 mg/mL. This stock was further diluted in the corresponding supplemented medium to obtain the final working concentrations of 0.05, 0.01 and 0.005 mg/mL. Untreated cells were used as negative control samples.
# The relevant genes for which the expression was measured were: MMP1 (matrix metallopeptidase 1), HYAL1 (hyaluronidase 1), TIMP2 (TIMP metallopeptidase inhibitor 2), HAS1 (hyaluronan synthase 1), FBLN5 (fibulin 5), LOXL1 (lysyl oxidase like 1), COL4A1 (collagen type IV alpha 1 chain), COL3A1 (collagen type III alpha 1 chain) and COL7A1 (collagen type VII alpha 1 chain). The primers used for each of the genes were commercially available TaqMan Gene Expression Assay probes.
# Briefly, HDFa cells were seeded in 12-well plates at a density of 1.5×10^5 cells/well and maintained at standard culture conditions (106 Medium supplemented with 1% LSGS; 37° C., 95% Relative Humidity, 5% CO2) for 24 hours. Then, cells were treated with the above-mentioned peptide at 0.005, 0.01 or 0.05 mg/mL for additional 6 or 24 hours.
# Cells were finally lysed, and RNA extraction was performed using Qiagen RNeasy Mini kit following manufacturer's instructions. Purified RNAs were used to generate the corresponding cDNAs by reverse transcription which served as templates for amplification. RT-qPCR was performed with the panel of TaqMan assay probes specified above and 2x gene expression Master Mix using StepOne plus Real-Time PCR instrument. Amplification included 40 cycles of: 15 seconds at 95° C. (denaturation) and 1 minute at 60° C. (Annealing and extension).
# The obtained data were analyzed using the ΔΔCt method, which provides the target gene expression values as fold changes in the treated sample compared with an untreated basal sample. Both samples were normalized with the relative expression of a housekeeping gene GAPDH (Glyceraldehyde 3-phosphate dehydrogenase).
# The steps for analysis included: • 1. Calculate the average Ct for each condition • 2. Calculate the ΔCT test sample and the ΔCT calibrator sample • 3. Calculate the ΔΔCT: ΔΔCT=ΔCT test sample−ΔCT calibrator sample • 4. Obtain ratio by 2^−ΔΔCT
# [3] = tested on: Human Fibroblast (SF-TY JCRB); test: Hyaluronic acid synthesis in human skin fibroblasts (ELISA); assay type: cell-based; conditions: 48 hours, first experimental session; for % HA content: negative control = 100
# Procedure: In this case the objective of this experiment was to evaluate in vitro the capability of the peptides of the present invention to increase Hyaluronic Acid (HA) synthesis or production in human skin fibroblasts. This evaluation was carried out by determination of HA amount after cell treatment with the peptide (at the different concentrations noted below), for 48 hours.
# The experimental groups were: • Untreated cell cultures (negative control). • Cells treated with the peptide of the present invention (at 0.005 mg/mL, 0.01 mg/ml or 0.05 mg/mL).
# Treatment was performed for 48 hours. Treatments were performed in triplicate and in two different experimental sessions.
# The experimental model used in this study were Human Fibroblast (SF-TY JCRB) cultivated in MEM with fetal bovine serum 10% and 1% antibiotics at 37° C., 5% CO2.
# Cells were seeded in 96-well plate at 1×10^4 cells/well and maintained for 24 h at standard culture conditions (37° C., 95% Relative Humidity, 5% CO2) before the treatment was applied.
# At the end of the experimental period, the determination of Hyaluronic synthesis was carried out by means of ELISA method. Commercial kits were used for this purpose. The test kit employed a two-site sandwich ELISA to quantitate HA in samples. Briefly, an antibody specific for HA was pre-coated onto a microplate; Standards and samples were pipetted into the wells and any HA present got bound by the immobilized antibody; after removing any unbound substances, a biotin-conjugated antibody specific for HA was added to the wells; after washing, Streptavidin conjugated Horseradish Peroxidase (HRP) was added to the wells; following a wash to remove any unbound avidin-enzyme reagent, a substrate solution was added to the wells and color developed in proportion to the amount of HA bound in the initial step. The color development was stopped, and the intensity of the color was measured. A calibration curve of known concentrations of standard hyaluronic acid was used to perform the determination of the tested samples.
# The results are expressed as % of HA content in cell culture medium and cell lysate, which is calculated by stablishing the content of HA in the negative control as 100% and making the appropriate comparison with the rest of the samples.
# [4] = tested on: muscle contraction-related genes; test: RT-qPCR expression of muscle contraction-related genes in myocytes; assay type: cell-based, human; conditions: 0.01 or 0.005 mg/mL, 24 h
# Procedure: A stock solution of the peptide was prepared in milli-Q water at 25 mg/mL. This stock was further diluted in the corresponding supplemented medium to obtain the final working concentrations of 0.01 and 0.005 mg/mL. Untreated cells were used as negative control samples.
# The relevant genes for which the expression was measured were: SCN1B (Sodium Voltage-Gated Channel Beta Subunit 1), SCN4A (Sodium Voltage-Gated Channel Alpha Subunit 4), SCN3A (Sodium Voltage-Gated Channel Alpha Subunit 3), CALM3 (Calmodulin 3) and RAPSN (Receptor Associated Protein of the Synapse). The primers used for each of the genes were commercially available TaqMan Gene Expression Assay probes. The experiment was performed in vitro in myocytes, two concentrations of the peptide were tested (0.01 mg/ml and 0.005 mg/mL) at 24 h.
# Briefly, human skeletal muscle myoblasts were seeded in 12-well plates at a density of 1×10^5 cells/well and maintained at standard culture conditions (SKM-M medium supplemented with 1% Antibiotic/Antimycotic; 37° C., 95% Relative Humidity, 5% CO2) for 48-72 hours until the plated myoblasts reached 80-90% confluence. […]
# The obtained data were analyzed using the ΔΔCt method, which provides the target gene expression values as fold changes in the treated sample compared with an untreated basal sample. […]
# [5] = tested on: HDFa cells; test: Procollagen I alpha 1 release from HDFa cells (ELISA); assay type: cell-based, human; conditions: 48 h
# Procedure: A stock solution of the peptide was prepared in water at 25 mg/mL. This stock was further diluted to obtain the final working concentrations of 0.01, 0.015 or 0.05 mg/mL in complete medium (Medium 106 supplemented with 2% LSGS). Untreated cells were used as basal condition.
# For this study, HDFa cells were seeded in a 24-well plate at a density of 100,000 cells/well and maintained at standard culture conditions (Medium 106 supplemented with 2% LSGS; 37° C., 95% Relative Humidity, 5% CO2) for 24 hours.
# After 24 hours, cells were treated for 48 h with the peptide of the present invention mentioned above (0.01, 0.015 and 0.05 mg/mL). After treatments, supernatants were collected and centrifuged in order to eliminate cell debris and were kept at −80° C. until they were used for procollagen I alpha 1 quantification with a human procollagen I alpha 1 DuoSet ELISA kit according to manufacturer instructions. Each condition was performed at least in triplicate (n=3) in three independent experiments (N=3).
# [6] = tested on: HDFa cells; test: Elastin synthesis in HDFa cells (Fastin Elastin Assay Kit); assay type: cell-based, human; conditions: 0.01 and 0.015 mg/ml, 48 hours, vs untreated samples
# Procedure: A stock solution of the peptide was prepared in water at 25 mg/mL. This stock was further diluted to obtain the final working concentrations of 0.005, 0.01 or 0.015 mg/mL in complete medium (Medium 106 supplemented with 2% LSGS). Untreated cells were used as basal condition.
# For this study, HDFa cells were seeded in a 12-well plate at a density of 120,000 cells/well and maintained at standard culture conditions (Medium 106+2% LSGS; 37° C., 95% Relative Humidity, 5% CO2) for 24 hours. Then, fibroblasts were treated for 48 hours with 0.005, 0.01 or 0.015 mg/mL of the peptide mentioned above. After treatment, cells were harvested for elastin quantification with the Fastin Elastin Assay Kit, according to manufacturer instructions. Each condition was performed at least in triplicate (n=3) in three independent experiments (N=3).
# [7] = biological target: T1, human NaV1.3 (Homo sapiens, UniProt Q9NY46); test: QPatch48 HT electrophysiology of NaV1.3 stably transfected into CHO cells; assay type: cell-based; conditions: 10 μM peptide, triplicate, vs separate negative control
# T1 construct: expressed in transfected cells; host or cells: Chinese Hamster Ovary (CHO) cells, stably transfected
# T1 sequence (Q9NY46 whole entry): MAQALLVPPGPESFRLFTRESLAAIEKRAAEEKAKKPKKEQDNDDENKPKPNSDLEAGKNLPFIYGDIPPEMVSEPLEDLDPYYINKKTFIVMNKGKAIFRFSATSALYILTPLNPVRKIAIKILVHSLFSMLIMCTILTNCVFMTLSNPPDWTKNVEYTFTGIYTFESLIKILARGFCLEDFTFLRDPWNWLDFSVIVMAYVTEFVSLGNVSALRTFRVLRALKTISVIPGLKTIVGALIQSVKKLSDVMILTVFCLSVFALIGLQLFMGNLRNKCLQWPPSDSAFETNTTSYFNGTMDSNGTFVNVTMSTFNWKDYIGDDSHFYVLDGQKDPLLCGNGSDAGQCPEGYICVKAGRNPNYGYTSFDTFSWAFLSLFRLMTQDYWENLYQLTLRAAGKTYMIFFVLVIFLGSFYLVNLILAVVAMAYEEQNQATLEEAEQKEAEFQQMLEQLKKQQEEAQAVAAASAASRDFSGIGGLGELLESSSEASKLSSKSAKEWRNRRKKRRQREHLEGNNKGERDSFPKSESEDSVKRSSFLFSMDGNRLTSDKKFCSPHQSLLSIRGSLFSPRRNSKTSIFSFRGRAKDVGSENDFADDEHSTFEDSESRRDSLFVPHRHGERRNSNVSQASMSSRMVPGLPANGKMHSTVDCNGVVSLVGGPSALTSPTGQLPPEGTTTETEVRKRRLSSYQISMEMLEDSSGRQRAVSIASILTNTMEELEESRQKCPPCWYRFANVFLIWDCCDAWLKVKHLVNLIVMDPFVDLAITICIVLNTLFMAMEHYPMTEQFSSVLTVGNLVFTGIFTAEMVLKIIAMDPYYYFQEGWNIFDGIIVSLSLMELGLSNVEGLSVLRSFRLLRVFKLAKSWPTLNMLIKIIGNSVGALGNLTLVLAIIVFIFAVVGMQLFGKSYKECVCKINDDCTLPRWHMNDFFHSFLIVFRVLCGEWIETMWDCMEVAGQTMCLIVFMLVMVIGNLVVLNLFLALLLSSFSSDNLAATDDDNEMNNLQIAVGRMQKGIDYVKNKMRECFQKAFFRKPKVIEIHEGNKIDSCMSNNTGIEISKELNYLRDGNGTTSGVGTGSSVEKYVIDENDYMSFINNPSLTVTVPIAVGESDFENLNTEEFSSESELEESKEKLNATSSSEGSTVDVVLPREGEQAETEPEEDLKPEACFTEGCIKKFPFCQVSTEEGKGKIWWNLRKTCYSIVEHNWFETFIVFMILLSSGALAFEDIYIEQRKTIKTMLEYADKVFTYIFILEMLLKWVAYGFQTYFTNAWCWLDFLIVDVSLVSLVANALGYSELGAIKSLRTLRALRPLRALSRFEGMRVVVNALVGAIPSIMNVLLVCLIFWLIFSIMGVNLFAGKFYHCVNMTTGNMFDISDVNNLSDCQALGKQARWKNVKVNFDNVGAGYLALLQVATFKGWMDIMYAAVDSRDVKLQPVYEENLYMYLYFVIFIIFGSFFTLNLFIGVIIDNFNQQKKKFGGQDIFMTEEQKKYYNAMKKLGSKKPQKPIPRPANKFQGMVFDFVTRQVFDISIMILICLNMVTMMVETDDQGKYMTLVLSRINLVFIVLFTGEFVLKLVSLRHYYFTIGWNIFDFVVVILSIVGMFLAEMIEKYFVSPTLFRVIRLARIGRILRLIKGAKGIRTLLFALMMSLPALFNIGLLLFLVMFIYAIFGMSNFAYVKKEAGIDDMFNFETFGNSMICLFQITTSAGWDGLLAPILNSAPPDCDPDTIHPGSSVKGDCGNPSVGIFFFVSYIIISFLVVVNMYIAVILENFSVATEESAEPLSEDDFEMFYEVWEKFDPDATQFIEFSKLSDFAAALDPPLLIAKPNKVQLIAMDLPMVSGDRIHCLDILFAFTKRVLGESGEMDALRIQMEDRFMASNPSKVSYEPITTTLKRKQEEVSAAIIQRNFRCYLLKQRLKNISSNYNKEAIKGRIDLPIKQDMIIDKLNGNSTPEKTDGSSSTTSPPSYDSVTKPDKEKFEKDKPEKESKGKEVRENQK
# Procedure: Using human NaV1.3 stably transfected into Chinese Hamster Ovary (CHO) cells, electrophysiology was performed to measure ion channel activity using the QPatch48 HT (Sophion, Denmark). Experiments were performed in triplicate and using a concentration of peptide of 10 μM. A separate negative control was performed for each of the peptides. As positive control Amitriptyline was used.
# [8] = 24 h, 0.05 mg/ml of the peptide
molecule,measurement,setting,value
"NC1=N[C@H](O)[C@H]2[C@H]3O[C@]4(O)O[C@@H]([C@@H](O)[C@@]2(N1)[C@@H]4O)[C@]3(O)CO [TTX, tetrodotoxin, reference compound]",blocking effect on sodium channels,[1],full blocking effect
Ile-Glu-Pro-Tyr-Tyr-Val-NH2 (IEPYYV-NH2) [SEQ ID NO: 5—NH2],ranking of sodium channel inhibition among tested peptides at the lower concentration,"[1]; 0.005 mg/mL, SHSY-5Y cells",performed the best
"KDRVY-NH2 [SEQ ID NO: 4—NH2, Lys-Asp-Arg-Val-Tyr-NH2]",HYAL1 gene expression,"[2]; 6 h, 0.005 mg/ml of the peptide",downregulation
same,HAS1 gene expression,"[2]; 6 h, 0.05 mg/ml of the peptide",upregulation
same,COL3A1 gene expression,"[2]; 24 h, 0.01 mg/m of the peptide",upregulation
same,COL4A1 gene expression,"[2]; 24 h, 0.01 mg/m of the peptide",upregulation
same,MMP1 gene expression,"[2]; 24 h, 0.01 mg/m of the peptide",downregulation
same,COL7A1 gene expression,[2]; [8],upregulation
same,FBLN5 gene expression,[2]; [8],upregulation
same,LOXL1 gene expression,[2]; [8],upregulation
same,TIMP2 gene expression,[2]; [8],upregulation
same,ranking of sodium channel inhibition among tested peptides at the two higher concentrations,"[1]; 0.01 and 0.05 mg/mL, SHSY-5Y cells",best results
same,% Variation with regard to negative control,[3]; 0.005 mg/mL,7.57** %
same,% HA content,[3]; 0.005 mg/mL,107.57** %
same,% Variation with regard to negative control,[3]; 0.01 mg/mL,21.75*** %
same,% HA content,[3]; 0.01 mg/mL,121.75*** %
same,% Variation with regard to negative control,[3]; 0.05 mg/mL,39.21*** %
same,% HA content,[3]; 0.05 mg/mL,139.21*** %
same,"expression of sodium channels and muscle contraction-related genes (SCN1B, SCN4A, SCN3A, CALM3, RAPSN)",[4],downregulate
same,increase of procollagen I alpha 1 protein release,"[5]; HDFa, 0.05 mg/mL (highest tested concentration)",53%
same,procollagen I alpha 1 protein release,"[5]; HDFa, 0.01, 0.015 and 0.05 mg/mL, vs untreated cells","increased at all tested concentrations, in a dose-dependent manner"
same,elastin levels,[6],increase of elastin levels
Lys-Arg-Arg-Tyr-Tyr-Cys-NH2 (KRRYYC-NH2) [SEQ ID NO: 2—NH2],inhibition of NaV1.3 inward currents,[7],increased and statistically significant effect
Lys-His-Arg-Ser-Tyr-NH2 (KHRSY-NH2) [SEQ ID NO: 3—NH2],inhibition of NaV1.3 inward currents,[7],increased and statistically significant effect
